Experimental data taken from patent US10086082B2, “Plant steroids and uses thereof” (DAVIDSON LOPEZ LLC, priority 2011, dated 2018).

Test system: Caco-2 cells
Experiment: Gene expression profiling of Caco-2 cells treated with compounds (Illumina HT-12 arrays, Volcano plots)
Type: cell-based, human
Details: gene array; for Interleukin-1, beta gene regulation: 24 hours exposure
Method: Gene expression profiles were generated from 2.5 μM and 25 μM treatments of Caco-2 cells (ATCC).
All compounds were individually applied to Caco-2 cells (250,000/well). After RNA isolation of each treatment, the isolated RNAs were individually labeled as cDNA probes and applied to Illumina HT-12 array chips.
Key Genes Affected per Gene Class: Using the Inforsense Suite of Data Analysis tool (IDBS), a total of 36 Volcano plots were generated against 36 gene array assays (triplicate array assays per nontreatment and treatment of compounds). […] Genes were identified on both sides of the volcano plots (shaded in gray in FIG. 2) that were at a correlation coefficient of p<0.05.
The human colon adenocarcinoma cell line Caco-2 was cultured in Dulbecco's Modified Eagle's Medium (Sigma-Aldrich) with 4.5 g/l glucose, L-glutamine, NaHCO3 and pyridoxine HCl supplemented with 1% (vol/vol) nonessential amino acids, 1% Na-pyruvate, 1% penicillin/streptomycin, and 10% (vol/vol) heat inactivated fetal calf serum, all purchased from Gibco BRL. Cell cultures were transferred weekly by trypsinization and incubated at 37° C. in a humidified incubator containing 5% CO2. […] Cells were exposed to each compound, respectively, for 24 hours.
Total RNA was isolated according to the TRIzol manufacturer's instructions (Invitrogen). RNA quality was assessed with a 2100 Bioanalyzer (Agilent). RNA from pooled triplicates of the various cell treatments, all with an RNA integrity number >7, was further purified with Qiagen RNeasy columns. From 300 ng of total RNA, the Illumina TotalPrep RNA Amplification kit (Ambion) was used to generate amplified biotinylated cRNA after reverse transcription by the Eberwine procedure. cRNA (900 ng) was hybridized overnight to Illumina HT-12 BeadArrays, which were then washed and stained with streptavidin-Cy3 (Amersham-Pharmacia Biotech) according to the Illumina protocol. Arrays were scanned on a BeadArray Reader (Illumina).
Specific transcripts within the biotinylated cRNA were measured by fluorescent imaging after direct hybridization to HT-12 bead arrays, which contain 12 arrays per slide, each with an average of 15 beads for each of 48,803 probes measuring 37,846 annotated genes and additional transcripts. Raw measurements of the intensity of each bead were captured directly and processed as “bead-level” for the samples, as described below. For both treated and non-treated samples, measurements were processed as “probe-level” data by GenomeStudio software (Illumina). […]

Row | Molecule | Interleukin-1, beta gene regulation | interleukin receptor and interleukins affected | similarity of gene profile to prednisone
1 | CC[C@H](/C=C/[C@@H](C)[C@H]1CC[C@H]2[C@@H]3CC=C4C[C@@H](OC(=O)CCC(=O)OCC(=O)[C@@]5(O)CC[C@H]6[C@@H]7CCC8=CC(=O)C=C[C@]8(C)[C@H]7[C@@H](O)C[C@@]65C)CC[C@]4(C)[C@H]3CC[C@]12C)C(C)C [SE-24, Stigmasterol Prednisolone Succinate Diester] | up-regulated | affected | more similar gene profiles to prednisone
2 | Stigmasterol Triethyleneglycol Prednisolone Succinate [SE-22] | up-regulated |  | 
